Assay results as given in patent US8962880B2, “Amorphous asiatic tromethamine salt and preparation method thereof” (Shanghai Institute of Pharmaceutical Industry, priority 2011, dated 2015).
≈ marks a conversion by molar mass, not a printed value.

Key:
[1] = in vivo, 50 mg

Row | SMILES | solubility (physchem; organic solvent or mixture) [mg/mL] | solubility (physchem; water) [mg/mL] | bioavailability [1]
1 | C[C@H]1[C@H](C)CC[C@]2(C(=O)O)CC[C@]3(C)C(=CC[C@@H]4[C@@]5(C)C[C@@H](O)[C@H](O)[C@@](C)(CO)[C@@H]5CC[C@]43C)[C@H]12 [asiatic acid, 2α,3β,23-trihydroxy-ursa-12-en-28-oic acid] | 33.1 (≈ 67.7 mM) | 0.03 (≈ 0.0614 mM) | 
2 | C[C@H]1[C@H](C)CC[C@]2(C(=O)O)CC[C@]3(C)C(=CC[C@@H]4[C@@]5(C)C[C@@H](O)[C@H](O)[C@@](C)(CO)[C@@H]5CC[C@]43C)[C@H]12.NC(CO)(CO)CO [comparative sample, asiatic acid tromethamine salt] |  |  | ca. 7.6%
